Measurements reported in patent US20230416245A1, “ADENOSINE ANALOGS FOR THE TREATMENT OF DISEASE” (BIOINTERVENE, INC., priority 2020, published 2023).
pKi: −log10 of the molar value.

biological target: human adenosine A3 receptor (Homo sapiens (Human), UniProt P0DMS8); experiment: Adenosine receptor binding assay ([125I]-AB-MECA competition); conditions: inhibition of 0.15 nM [125I]-AB-MECA binding, membranes of cells expressing human A3 receptor; read-out: hA3 Ki: Ki
How it was run: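 Membranes (20 μg) from cells stably expressing human A3 receptor in 50 mM Tris pH 7.4 ± 10 mM MgCl2 with 0.15 nM [125I]-AB-MECA, 120 min at room temperature, filtration and gamma counting. IC50 and Hill slope by Hill-equation fit; Ki via Cheng-Prusoff using the radioligand Kd.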

human adenosine A3 receptor, sequence (P0DMS8 whole entry): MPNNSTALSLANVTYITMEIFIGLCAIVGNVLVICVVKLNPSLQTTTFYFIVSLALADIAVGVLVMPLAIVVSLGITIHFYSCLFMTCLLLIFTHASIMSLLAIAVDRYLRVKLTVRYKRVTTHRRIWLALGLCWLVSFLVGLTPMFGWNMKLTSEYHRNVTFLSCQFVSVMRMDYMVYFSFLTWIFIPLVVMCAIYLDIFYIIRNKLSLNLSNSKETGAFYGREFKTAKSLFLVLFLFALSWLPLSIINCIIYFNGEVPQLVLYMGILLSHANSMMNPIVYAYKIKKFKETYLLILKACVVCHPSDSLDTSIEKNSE

| Compound | pKi |
| --- | --- |
| CCNc1cc(C#CC2CC2)nc2c1ncn2[C@H]1[C@H](O)[C@H](O)[C@@H]2C[C@@H]21 [Compound 46, (1R,2R,3S,4R,5S)-4-(5-(cyclopropylethynyl)-7-(ethylamino)-3H-imidazo[4,5-b]pyridin-3-yl)bicyclo[3.1.0]hexane-2,3-diol] | 7.67 |
| O[C@@H]1[C@H](O)[C@@H]2C[C@@H]2[C@H]1n1cnc2c(NCC(F)F)nc(Cl)nc21 [Compound 35, (1R,2R,3S,4R,5S)-4-(2-chloro-6-((2,2-difluoroethyl)amino)-9H-purin-9-yl)bicyclo[3.1.0]hexane-2,3-diol] | 8.77 |
| Cc1c(Cl)nc2c(ncn2[C@H]2[C@H](O)[C@H](O)[C@@H]3C[C@@H]32)c1NCC(F)F [Compound 60, (1R,2R,3S,4R,5S)-4-(5-chloro-7-((2,2-difluoroethyl)amino)-6-methyl-3H-imidazo[4,5-b]pyridin-3-yl)bicyclo[3.1.0]hexane-2,3-diol] | < 5.03 |
| O[C@@H]1[C@H](O)[C@@H]2C[C@@H]2[C@H]1n1cnc2c(NCC(F)F)cc(Cl)nc21 [Compound 40, (1R,2R,3S,4R,5S)-4-(5-chloro-7-((2,2-difluoroethyl)amino)-3H-imidazo[4,5-b]pyridin-3-yl)bicyclo[3.1.0]hexane-2,3-diol] | 8.70 |
